Source: patent US20100004247A1, “COMBINATION COMPRISING A MEK INHIBITOR AND AN AURORA KINASE INHIBITOR 188” (AstraZeneca AB, priority 2007, published 2010)

Columns and labels:
[1] = tested on: Calu-6 human lung tumour xenografts; assay: In vivo combination study in the Calu-6 human lung cancer xenograft model (tumour growth inhibition); set-up: species or system female athymic mice (Swiss nu/nu genotype); conditions: Day 35; AZD1152 150 mg/kg/day s.c. infusion 2 days; AZD6244 25 mg/kg twice daily oral 14 days; 24 h gap in sequences
Procedure: To establish the in vivo efficacy of combination therapy of AZD1152 and AZD6244 in Calu-6 human lung xenograft model, experiments were conducted in female athymic mice (Swiss nu/nu genotype, ≧6 weeks of age). Calu-6 human lung tumour xenografts were established in mice by injecting 1×10^6 cells (100 μl volume containing 50% Matrigel®) subcutaneously in the dorsal flank. Tumour volumes were assessed using bilateral Vernier calliper measurement at least twice weekly and calculated using the formula (length×width)×√(length×width)×(π/6), where length was taken to be the longest diameter across the tumour and width the corresponding perpendicular. Mice were randomised into 4 treatment groups (10 mice/group) when the mean tumour volume reached approximately 0.2 cm^3. Following randomisation, mice were treated with drug vehicles for AZD1152 or AZD6244, AZD1152, AZD6244 or a combination of AZD1152 plus AZD6244 according to treatment schedules described below: […]
Tumour growth inhibition was assessed by comparison of the differences in tumour volume between control and treated groups on Day 35 of the study. The effects of combination treatment sequence were assessed by comparing any effect on tumour growth in the group of animals receiving AZD1152 and AZD6244 with tumour growth in the groups where animals received single agent therapy alone. […]

[2] = Pro-drug conversion to active moiety in human plasma; format: in vitro ADME

conversion of pro-drug to the active moiety AZD1152 HQPA [2] | Structure (SMILES) | growth inhibition of Calu-6 tumours compared to the vehicle-dosed group [1]
 | Cn1cnc2c(F)c(Nc3ccc(Br)cc3Cl)c(C(=O)NOCCO)cc21 [AZD6244, 6-(4-Bromo-2-chloro-phenylamino)-7-fluoro-3-methyl-3H-benzoimidazole-5-carboxylic acid (2-hydroxy-ethoxy)-amide] | 57.8%
rapidly and completely converted | CCN(CCCOc1ccc2c(Nc3cc(CC(=O)Nc4cccc(F)c4)n[nH]3)ncnc2c1)CCOP(=O)(O)O [AZD1152, 2-{[3-({4-[(5-{2-[(3-fluorophenyl)amino]-2-oxoethyl}-1H-pyrazol-3-yl)amino]quinazolin-7-yl}oxy)propyl](ethyl)amino}ethyl dihydrogen phosphate] | 94.7%
